Measured values taken from ChEMBL document CHEMBL5506048, “Modular Biomimetic Strategy Enables Discovery and SAR Exploration of Oxime Macrocycles as Influenza A Virus (H1N1) Inhibitors” (J Med Chem, 2024).
Active and inactive are the calls of the source. The rule behind the calls is not given here.

Experiments:
[1] = tested on: Influenza A virus; test: Antiviral activity against Influenza virus H1N1 A/Puerto Rico/8/34 (A/PR/8/34) infected in human Calu-3 cells assessed as viral RNA at CC50 concentration for human Calu-3 cells measured after 3 days by one-time real time PCR assay; type: functional, organism-based; details: time 3.0 day
[2] = tested on: Calu-3; test: Cytotoxicity against human Calu-3 cells assessed as cell viability measured after 3 days by CellTiter-Lumi Steady Plus Luminescent Cell Viability Assay Kit; type: functional; details: Calu-3, 72 h, time 3 day
[3] = tested on: Influenza A virus; test: Antiviral activity against Influenza virus H1N1 A/Puerto Rico/8/34 (A/PR/8/34) infected in human Calu-3 cells assessed as viral RNA measured after 3 days by one-time real time PCR assay; type: functional, organism-based; details: Calu-3, 72 h; for EC90: time 3 day
[4] = Selectivity index, ratio of CC50 for human Calu-3 cells to EC50 for antiviral activity against Influenza virus HINI A/Puerto Rico/8/34 (A/PR/8/34); type: toxicity; details: read-out: Selectivity Index

| SMILES | Activity [1] | CC50 [2] [µM] | EC50 [3] [µM] | EC90 [3] [µM] | selectivity ratio [4] |
| --- | --- | --- | --- | --- | --- |
| C=C1Cc2cc(C(F)(F)F)ccc2C(=O)NCC(C)(C)/C(=N/OC)CCC(CNCCO)OC1=O (configuration not stated) | inactive | > 100 |  |  |  |
| C=C1Cc2ccc(C(F)(F)F)cc2C(=O)NCC(C)(C)/C(=N/OC)CCCOC1=O |  | 73.6 | 0.264 | 1.05 | 278 |
| C=C1Cc2cc(C(F)(F)F)ccc2C(=O)NCC(C)(C)/C(=N/OC)CCCOC1=O |  | > 100 | 0.441 | 0.56 | > 226 |
| C=C1Cc2cc(OC)ccc2C(=O)NCC(C)(C)/C(=N/OC)CCCOC1=O |  | > 100 | 1.05 | 3.55 | > 95 |
| C=C1Cc2cc(F)ccc2C(=O)NCC(C)(C)/C(=N/OC)CCCOC1=O |  | > 100 | 1.65 | 1.98 | > 60 |
| C=C1Cc2cc(C(F)(F)F)ccc2C(=O)NCC(C)(C)/C(=N/OC)CCCCCOC1=O | inactive | 40.7 |  |  |  |
| CCC(CC)Oc1ccc(/C=C2\Cc3cc(C(F)(F)F)ccc3C(=O)NCC(C)(C)/C(=N/OC)CCCCOC2=O)cc1 | inactive | > 100 |  |  |  |
| CO/N=C1\CCCCOC(=O)/C(=C/c2ccc(N3CCOCC3)cc2)Cc2cc(C(F)(F)F)ccc2C(=O)NCC1(C)C | inactive | > 100 |  |  |  |
| C=C1Cc2cc(C(F)(F)F)ccc2C(=O)NCC(C)(C)/C(=N/OC)CCCCOC1=O |  | > 100 | 2.3 | 46.5 | > 43 |
| CO/N=C1\CCCOC(=O)C(C)Cc2cc(C(F)(F)F)ccc2C(=O)NCC1(C)C (configuration not stated) |  | > 100 | 2.74 | > 100 | > 36 |
| CO/N=C1\CCCCOC(=O)C(CSCCC(=O)O)Cc2cc(C(F)(F)F)ccc2C(=O)NCC1(C)C (configuration not stated) | inactive | > 100 |  |  |  |
| C=C1Cc2cc(C(F)(F)F)ccc2C(=O)NCC(C)(C)/C(=N/OC)CCC(CC)OC1=O (configuration not stated) | inactive | 42.4 |  |  |  |
| C=C1Cc2cc(C(F)(F)F)ccc2C(=O)NCC(C)(C)/C(=N/OC(C)C)CCC(C)OC1=O (configuration not stated) | inactive | 36.6 |  |  |  |
| C=C1Cc2cc(C(F)(F)F)ccc2C(=O)NCC(C)(C)/C(=N/OC)CCOC1=O | inactive | > 100 |  |  |  |
| C=C1Cc2cc(C(F)(F)F)ccc2C(=O)NCC(C)(C)/C(=N/OCC23C[C@H]4C[C@@H](C2)C[C@@H](C3)C4)CCC(C)OC1=O (some centres not stated) | inactive | 47 |  |  |  |
| C=C1Cc2cc(C(F)(F)F)ccc2C(=O)NCC(C)(C)/C(=N/OC)CCC(C2CC2)OC1=O (configuration not stated) | inactive | 42.9 |  |  |  |
| C=C1Cc2cc(C(F)(F)F)ccc2C(=O)NCC(C)/C(=N/OC)CCCOC1=O (configuration not stated) | inactive | > 100 |  |  |  |
| CO/N=C1\CCCCOC(=O)/C(=C/c2ccc(F)cc2)Cc2cc(C(F)(F)F)ccc2C(=O)NCC1(C)C | inactive | > 100 |  |  |  |
| C=C1Cc2cc(C(F)(F)F)ccc2C(=O)NCC(C)(C)/C(=N/OC)CCC(c2ccc(F)cc2)OC1=O (configuration not stated) | inactive | 27.3 |  |  |  |
| C=C1Cc2cc(C(F)(F)F)ccc2C(=O)NCC(C)(C)/C(=N/OC)CCCCCCOC1=O | inactive | 15.6 |  |  |  |
| C=C1Cc2cc(C(F)(F)F)ccc2C(=O)NCC(C)(C)/C(=N/OC)CCC(C(=O)O)OC1=O (configuration not stated) | inactive | > 100 |  |  |  |
| C=C1Cc2cc(C(F)(F)F)ccc2C(=O)NCC(C)(C)C(=O)CCCCOC1=O | inactive | > 100 |  |  |  |
| C=C(Cc1cc(C(F)(F)F)ccc1C(=O)NCC(C)(C)/C(CCCO)=N/OC)C(=O)O | inactive | > 100 |  |  |  |
| C=C1Cc2cc(C(F)(F)F)ccc2C(=O)NCC(C)(C)/C(=N/OC(CC)CC)CCC(C)OC1=O (configuration not stated) | inactive | 31.9 |  |  |  |
| C=C1Cc2cc(C(F)(F)F)ccc2C(=O)NCC(C)(C)/C(=N/OC)CCC(CN2CCOCC2)OC1=O (configuration not stated) | inactive | > 100 |  |  |  |
